The values that follow come from EP1543832A2, “Use of trans-4[4-(3-chloro-4-methoxy-benzylamino) benzothieno[2,3-d]pyrimidin-2-yl]-cyclohexanecarboxylic acid in the treatment of extrapyramidal movement disorders” (MERCK PATENT GmbH, priority 2003, dated 2005).

Data set [1] deals with systemic 3-nitropropionic acid (3-NP) model in rats. As to the kind of experiment: Systemic 3-nitropropionic acid (3-NP) model, nocturnal activity. Type of data set: in vivo. Here is the method: A typical animal model is the systemic 3-nitropropionic acid (3-NP) model in rats according to C.V. Borlongan et al., Brain Res., 1995; 697: 254-257. Rats are treated with injections of the selective striatal neurotoxin 3-NP i.p. every fourth day (C.V. Borlongan et al., Brain Res. Protocols, 1997; 1: 253-257). After two injections of 3-NP, rats display nocturnal hyperactivity reflecting symptoms of early Huntington's disease, whereas rats treated with four injections of 3-NP display nocturnal akinesia (hypoactivity) reflecting symptoms of late Huntington's disease. Nocturnal activity is automatically measured in conventional acitivity cages by infrared beams. Trans-4-[4-(3-chloro-4-methoxybenzylamino)-benzothieno-[2,3-d]pyrimidin-2-yl]cyclohexanecarboxylic acid or a physiologically acceptable salt thereof reduce both the nocturnal hyperactivity and akinesia.

In data set [2] the test system is striatonigral degeneration approach in the rat. Briefly: Striatonigral degeneration model (6-hydroxydopamine plus quinolinic acid), turning behavior. Type of data set: in vivo. As to conditions: automated recorder. From the text: Another more recent animal model is the striatonigral degeneration approach in the rat according to G.K. Wenning et al., J. Neural Transm. Suppl., 1999; 55: 103-113. Rats receive an unilateral injection of 6-hydroxydopamine into the left medial forebrain bundle followed by an injection of quinolinic acid into the ipsilateral striatum inducing nigrostriatal degeneration. The degeneration results in turning behavior to a challenge with dopaminomimetics such as apomorphine or amphetamine. Turning behavior is measured by an automated recorder.

Data set [3] has as its system mutant dystonic hamster. As to the kind of experiment: Mutant dystonic hamster, scored dystonic attacks. Type of data set: in vivo. As to conditions: scoring system. The source says: A typical animal model is the mutant dystonic hamster according to A. Richter and W. Löscher, Prog. Neurobiol. 1998; 54: 633-677. In this genetically dystonic hamsters, dystonic attacks are provoked by taking the animal from the home cage and placing it on a balance. The dystonic syndrome consists of a sequence of abnormal movements, and the severity of the single symptoms is rated by a scoring system.

The test system of data set [4] is neuroleptics-induced muscle rigidity in rats. As to the kind of experiment: Neuroleptics-induced muscle rigidity (haloperidol challenge). In kind it is in vivo. To be noted: resistance to passive flexion and extension of the hind limb. The source says: A typical animal model is neuroleptics-induced muscle rigidity in rats according to S. Wolfarth et al., Arch. Pharmacol. 1992; 345: 209-212. Rats are challenged with the conventional neuroleptic drug haloperidol which enhances muscle tone. Muscle tone is electromechanically measured as the resistence to passive flexion and extension of the hind limb. Trans-4-[4-(3-chloro-4-methoxybenzylamino)-benzothieno-[2,3-d]pyrimidin-2-yl]cyclo-hexanecarboxylic acid or a physiologically acceptable salt thereof thereof decrease the mucle tone enhanced by haloperidol.

Data set [5] deals with catalepsy induced by conventional antidopaminergic drugs. As to the kind of experiment: Catalepsy induced by conventional antidopaminergic drugs such as haloperidol. To be noted: rat, in vivo. On the procedure:
(§1) Extrapyramidal motor side effects in e.g. rodents are measured by the ability of a drug to induce catalepsy. Catalepsy is defined as a state where an animal continues to remain in an unnormal (nonphysiological 'uncomfortable') posture for a long time (e.g.: M.E. Stanley and S.D. Glick, Neuropharmacology, 1996; 15: 393-394; C.J.E. Niemegeers and P. Janssen, Life Sci., 1979, […]). For example, if a hindpaw of a rat is placed on an elevated level, e.g. a platform elevated 3 cm above ground level, a normal rat immediately withdraws the hindpaw from the platform to the ground level. A cataleptic rat remains in this unnatural posture even for minutes.

Data set [6] relates to Parkinsonian cynomolgus monkey. As to the kind of experiment: MPTP Parkinsonian cynomolgus monkey, Laval University Disability Scale. Type of data set: in vivo. The source says:
A typical animal model for idiopathic Parkinson's disease is the Parkinsonian cynomolgus monkey according to P.J. Blanchet et al., Exp. Neurology 1998; 153: 214-222. Monkeys render parkinsonian by repeated injections of 1-methyl-4-phenyl-1,2,3,6-tetrahydropyridine (MPTP).
Parkinsonian symptoms are qualitatively assessed by the use of the Laval University Disability Scale (B. Gomez-Mancilla et al., 1993; Mov. Disord. 8: 144-150) measuring the following symptoms: posture, mobility, climbing, gait, holding food, vocalizing, grooming, social interaction.

The test system of data set [7] is Parkinsonian cynomolgus monkey. Briefly: Adverse effects of long-term l-dopa treatment in the MPTP Parkinsonian cynomolgus monkey. In kind it is in vivo. As to conditions: MPTP monkeys chronically treated with l-dopa. On the procedure: Treatment of adverse effects of conventional anti-Parkinsonian drugs as defined above are determined in a modification of the animal model of the Parkinsonian cynomolgus monkey according to P.J. Blanchet et al., Exp. Neurology 1998; 153: 214-222. Monkeys render parkinsonian by repeated injections of 1-methyl-4-phenyl-1,2,3,6-tetrahydropyridine (MPTP). The Parkinsonian monkeys are chronically treated with the standard I-dopa therapy according to P.J. Blanchet et al., Mov. Disord., 1998; 13: 798-802. Longterm treatment with I-dopa induces extrapyramidal motor side effects and psychotic states which are both qualitatively and quantitatively, assessed by the Abnormal Involuntary Movement Scale (P.J. Blanchet et al., Mov. Disord. 1998; 13: 798-802) for different body parts (face, neck, trunk, each limb) and by rating for psychotic states by observing the monkey's attention, reactivity and mobility. Trans-4-[4-(3-chloro-4-methoxybenzylamino)-benzothieno-[2,3-d]pyrimidin-2-yl]cyclohexane-carboxylic acid reduced overall choreiform dyskinesias and dystonic dyskinesias as well as psychotic states.

The test system of data set [8] is cervical dystonia (spasmodic torticollis). Briefly: Double-blind placebo-controlled study in cervical dystonia (TWSTRS). To be noted: 2.5 mg to 20 mg b.i.d. versus placebo. In kind it is in vivo, patients.
Data set [9] deals with Campus Syndrome in the Pietrain pig. Briefly: Campus Syndrome tremor model, accelerometric recording. Type of data set: in vivo. From the text: Typical genetic models in mutant animals are the Campus Syndrome in the Pietrain pig according to A. Richter et al. (Exp. Neurology, 1995; 134: 205-213) or the Weaver mutant mouse according to J.R. Simon and B. Ghetti (Mol. Neurobiol., 1994; 9: 183-189). In the Campus Syndrome model, these mutant pigs show a high-frequency tremor when standing and during locomotion, but not while lying at rest. Assessment of tremor is made by accelerometric recording. In the Weaver mutant mouse, degenerative cerebellar atrophy is fould in association with tremor, gait instability, and toppling over the sides after a few steps.
Trans-4-[4-(3-chloro-4-methoxybenzylamino)-benzothieno-[2,3-d]pyrimidin-2-yl]cyclohexanecarboxylic acid or a physiologically acceptable salt thereof improve the Campus Syndrome in the Pietrain pig, i.e. reduce disabling tremor when standing and during locomotion, and enhance locomotor activity in the Weaver mutant mouse.

Data set [10] deals with catalepsy. As to the kind of experiment: Ability of a drug to induce catalepsy (extrapyramidal motor side effects). In kind it is in vivo, rat. To be noted: measured in e.g. rodents by the ability of a drug to induce catalepsy. Here is the method: as §1
[11] abbreviates: Abnormal Involuntary Movement Scale.

`COc1ccc(CNc2nc([C@H]3CC[C@H](C(=O)O)CC3)nc3sc4ccccc4c23)cc1Cl` [trans-4-[4-(3-chloro-4-methoxybenzylamino)-benzothieno-[2,3-d]pyrimidin-2-yl]cyclohexanecarboxylic acid]: the nocturnal akinesia result in data set [1] (after four injections of 3-NP (late Huntington's disease)) is on record as “reduce”. In addition, the nocturnal hyperactivity entry in [1] (after two injections of 3-NP (early Huntington's disease)) is on record as “reduce”. Further, the “Turning behavior induced by apomorphine or amphetamine” value in data set [2] is given as “dose-dependently antagonized”. Besides, the “severity of dystonic symptoms” value in data set [3] is reported as “dose-dependently reduce”. Further, in [4], the “muscle tone enhanced by haloperidol” value was “decrease”. Moreover, in data set [5], the “prevention of catalepsy induced by conventional antidopaminergic drugs” value is “able to prevent catalepsy” and the “reversal of already existing catalepsy induced by conventional antidopaminergic drugs such as haloperidol” value is listed as “reverses already existing catalepsy”. Besides, the parkinsonian symptoms entry in data set [6] (Laval University Disability Scale) is “reduced all the parkinsonian symptoms”. Also, in data set [6] (MPTP monkeys), the total activity result is recorded as “increased”. Also, in [7] (setting [11]), the dystonic dyskinesias entry is recorded as “reduced” and the overall choreiform dyskinesias entry was “reduced”. The psychotic states result in data set [7] (rating of attention, reactivity and mobility) was “reduced”. In data set [8], the TWSTRS scores result was “significant improvement”. Moreover, the “disabling tremor when standing and during locomotion” value in data set [9] is “reduce”. Besides, the “liability to induce extrapyramidal side effects” value in [10] was “extremely low liability to induce extrapyramidal side effects”.
